One series relates to TNF-α. Put plainly: In vitro cell experiment: LPS-stimulated TNF-α release in THP-1 cells (ELISA). It counts as cell-based. As to conditions: Homo sapiens; TNF-α in supernatant of THP-1 cells, compound 2 h then LPS 10 μg/ml 2 h. The source says: I. In Vitro Cell Experiment
Cells: human monocytic leukemia THP-1 cells (obtained from the Shanghai Cell Bank of Chinese Academy of Sciences).
Lipopolysaccharides: from Escherichia coli O55: B5, L2880 (Sigma).
Kit: Human TNF-α Elisa MAX Deluxe Set, 430206 (Biolegend)
(In an ELISA, binding on a coated surface is turned into a signal by an enzyme label.)

The next series deals with CYP450, 2C9 enzymes (Homo sapiens (Human), UniProt P11712). Put plainly: CYP450 enzyme inhibition test in human liver microsome. The class given is in vitro ADME. As to conditions: CYP450 2C9, LC-MS/MS. In general terms: Liver microsomes are a subcellular fraction often used to study metabolism.
Another series deals with p38a (Homo sapiens (Human), UniProt Q16539). Put plainly: Assay of p38 kinase activity (fluorescence, peptide substrate). The class given is biochemical. As to conditions: 40 nM p38a, 100 μM ATP, 90 minutes. How it is done:
II. Assay of p38 Kinase Activity
Experimental Method: 40 nM p38a was added into a reaction buffer, which include 20 mM HEPES (4-hydroxyethylpiperazine ethanesulfonic acid), 5 mM MgCl2 and 1 mM DTT (dithiothreitol) at pH 7.4. 40 μM phosphorylated peptide substrate was added, followed by different concentrations of drugs and 100 μM ATP (adenosine triphosphate), and reacted for 90 minutes in dark. […] The IC50 values of the compounds were obtained according to the fluorescence values.

A value given as a limit tells only on which side of the number the result lay.

Sequence of p38a (Q16539 whole entry): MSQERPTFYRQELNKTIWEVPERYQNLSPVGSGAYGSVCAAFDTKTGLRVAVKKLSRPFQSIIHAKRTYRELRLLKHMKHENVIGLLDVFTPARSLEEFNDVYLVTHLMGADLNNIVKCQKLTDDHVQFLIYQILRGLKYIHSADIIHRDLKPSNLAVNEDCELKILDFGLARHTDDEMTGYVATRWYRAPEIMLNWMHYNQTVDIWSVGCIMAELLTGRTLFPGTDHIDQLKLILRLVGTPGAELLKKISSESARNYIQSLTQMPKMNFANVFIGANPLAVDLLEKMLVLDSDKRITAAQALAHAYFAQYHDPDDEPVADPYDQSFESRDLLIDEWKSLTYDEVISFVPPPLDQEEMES
Sequence of CYP450, 2C9 enzymes (P11712 whole entry): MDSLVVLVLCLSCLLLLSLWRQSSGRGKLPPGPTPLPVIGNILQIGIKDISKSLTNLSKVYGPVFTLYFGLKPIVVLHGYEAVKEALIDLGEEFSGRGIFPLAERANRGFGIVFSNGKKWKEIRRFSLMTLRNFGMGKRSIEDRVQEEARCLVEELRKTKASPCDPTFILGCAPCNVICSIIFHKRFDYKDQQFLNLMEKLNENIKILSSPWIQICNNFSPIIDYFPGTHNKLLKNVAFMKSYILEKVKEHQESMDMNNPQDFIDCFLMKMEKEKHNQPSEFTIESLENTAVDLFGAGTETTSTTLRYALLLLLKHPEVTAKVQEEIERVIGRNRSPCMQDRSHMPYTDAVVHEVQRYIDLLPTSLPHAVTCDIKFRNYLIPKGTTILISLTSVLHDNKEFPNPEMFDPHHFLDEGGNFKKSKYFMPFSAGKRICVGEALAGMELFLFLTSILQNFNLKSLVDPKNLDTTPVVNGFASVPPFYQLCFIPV

As for `Cc1c(F)cc(C(=O)NC2CC2)cc1-c1ccc(C(=O)N(C)CC(C)C)nn1` [Example 3], the IC50 with TNF-α is 5 to 10 nM; against CYP450, 2C9 enzymes, greater than 50000 nM; at p38a, less than 5 nM. Regarding `Cc1c(F)cc(C(=O)NC2CC2)cc1-c1ccc(C(=O)NC2CCCC2)nn1` [Example 4], the IC50 in the series with TNF-α was less than 5 nM; on CYP450, 2C9 enzymes, greater than 50000 nM; against p38a, less than 5 nM.

Turning to `Cc1c(F)cc(C(=O)NC2CC2)cc1-c1ccc(C(=O)NC2CCCCC2)nn1` [Example 5, N-cyclohexyl-6-(5-(cyclopropylcarbamoyl)-3-fluoro-2-methylphenyl) pyridazin-3-carboxamide], the IC50 was less than 5 nM with TNF-α; greater than 50000 nM at CYP450, 2C9 enzymes; less than 5 nM against p38a. For the compound `CCCCCNC(=O)c1ccc(-c2cc(C(=O)NC3CC3)cc(F)c2C)nc1` [Example 9, 6-(5-(cyclopropylcarbamoyl)-3-fluoro-2-methylphenyl)-N-pentylnicotinamide], the IC50 in the series on TNF-α and at p38a was 5 to 10 nM in each case. `Cc1c(F)cc(C(=O)NC2CC2)cc1-c1ccc(C(=O)NC2CCCCC2)cn1` [Example 10, N-cyclohexyl-6-(5-(cyclopropylcarbamoyl)-3-fluoro-2-methylphenyl) nicotinamide] registered a half-maximal inhibitory concentration (IC50) in the series on TNF-α of less than 5 nM.

As to `Cc1c(F)cc(C(=O)NC2CC2)cc1-c1ccc(C(=O)N2CCCCCC2)cn1` [Example 14], in the series with TNF-α, the IC50 lay within 5 to 10 nM. Take `Cc1c(F)cc(C(=O)NC2CC2)cc1-c1ccc(C(=O)NCC(C)C)nc1` [Example 15, 5-(5-(cyclopropylcarbamoyl)-3-fluoro-2-methylphenyl)-N-isobutylpyridin-2-formamide]: the IC50 in the series with TNF-α and against p38a was less than 5 nM throughout.

With `Cc1c(F)cc(C(=O)NC2CC2)cc1-c1ccc(C(=O)N(C)CC(C)C)nc1` [Example 16, 5-(5-(cyclopropylcarbamoyl)-3-fluoro-2-methylphenyl)-N-isobutyl-N-methylpyridin-2-formamide], the IC50 is less than 5 nM in the series on TNF-α; greater than 50000 nM at CYP450, 2C9 enzymes; less than 5 nM on p38a. For `Cc1c(F)cc(C(=O)NC2CC2)cc1-c1ccc(C(=O)NC2CCCC2)nc1` [Example 17, N-cyclopentyl-5-(5-(cyclopropylcarbamoyl)-3-fluoro-2-methylphenyl)pyridin-2-foramamide], the IC50 with TNF-α was less than 5 nM. In the series on TNF-α, `CCCN(CCC)C(=O)c1ccc(-c2cc(C(=O)NC3CC3)cc(F)c2C)cc1` [Example 20, N^3-cyclopropyl-5-fluoro-6-methyl-N^4′,N^4′-dipropyl-[1,1′-biphenyl]-3,4′-dicarboxamide] came in with an IC50 of 5 to 10 nM. `Cc1c(F)cc(C(=O)NC2CC2)cc1-c1ccc(C(=O)NC2CCCC2)cc1` [Example 22] yielded an IC50 in the series with TNF-α of less than 5 nM. In the series with TNF-α, `Cc1c(F)cc(C(=O)NC2CC2)cc1-c1ccc(C(=O)N(C)C2CCCC2)cc1` [Example 23, N^4′-cyclopentyl-N^3-cyclopropyl-5-fluoro-N^4′,6-dimethyl-[1,1′-biphenyl]-3,4′-dicarboxamide] came in with an IC50 of 5 to 10 nM. In the series with TNF-α, `Cc1c(F)cc(C(=O)NC2CC2)cc1-c1ccc(C(=O)NC2CCCCC2)cc1` [Example 24, N^4′-cyclohexyl-N^3-cyclopropyl-5-fluoro-6-methyl-[1,1′-biphenyl]-3,4′-dicarboxamide] gave an IC50 of 5 to 10 nM.

Take `Cc1c(F)cc(C(=O)NC2CC2)cc1-c1ccc(C(=O)N(C)C2CCCCC2)cc1` [Example 25, N^4′-cyclohexyl-N^3-cyclopropyl-5-fluoro-N^4′,6-dimethyl-[1,1′-biphenyl]-3,4′-dicarboxamide]: the half-inhibitory concentration (IC50) in the series with TNF-α was less than 5 nM; at p38a it was 5 to 10 nM. With `Cc1c(F)cc(C(=O)NC2CC2)cc1-c1ccc(C(=O)N2CCC(C)CC2)cc1` [Example 26, N-cyclopropyl-5-fluoro-6-methyl-4′-(4-methylpiperidin-1-carbonyl)-[1,1′-biphenyl]-3-carboxamide], in the series with TNF-α, the IC50 was in the range of 5 to 10 nM. Same read-out and setting: the result for `Cc1c(F)cc(C(=O)NC2CC2)cc1-c1ccc(C(=O)N2CCCCCC2)cc1` [Example 28, 4′-(azepane-1-carbonyl)-N-cyclopropyl-5-fluoro-6-methyl-[1,1′-biphenyl]-3-carboxamide] reads 5 to 10 nM. On to `Cc1c(F)cc(C(=O)NC2CC2)cc1-c1ccc(C(=O)NCC(C)C)c(F)c1` [Example 30, N^3-cyclopropyl-3′,5-difluoro-N^4′-isobutyl-6-methyl-[1,1′-biphenyl]-3,4′-dicarboxamide], for which the IC50 in the series with TNF-α and on p38a was less than 5 nM in each case.

`Cc1c(F)cc(C(=O)NC2CC2)cc1-c1ccc(C(=O)N(C)CC(C)C)c(F)c1` [Example 31, N^3-cyclopropyl-3′,5-difluoro-N^4′-isobutyl-N^4′,6-dimethyl-[1,1′-biphenyl]-3,4′-dicarboxamide]: the IC50 in the series with TNF-α and at p38a was less than 5 nM each time. As for `Cc1c(F)cc(C(=O)NC2CC2)cc1-c1ccc(C(=O)NC2CCCC2)c(F)c1` [Example 32, N^4′-cyclopentyl-N^3-cyclopropyl-3′,5-difluoro-6-methyl-[1,1′-biphenyl]-3,4′-dicarboxamide], the IC50 with TNF-α and at p38a was less than 5 nM in each case.

With `Cc1c(F)cc(C(=O)NC2CC2)cc1-c1ccc(C(=O)N(C)C2CCCC2)c(F)c1` [Example 33, N^4′-cyclopentyl-N^3-cyclopropyl-3′,5-difluoro-N^4′,6-dimethyl-[1,1′-biphenyl]-3,4′-dicarboxamide], the IC50 with TNF-α was less than 5 nM. In the series with TNF-α, `CCC(C)(C)NC(=O)c1ccc(-c2cc(C(=O)NC3CC3)cc(F)c2C)cc1N` [Example 41, 3′-amino-N^3-cyclopropyl-5-fluoro-6-methyl-N^4′-(tertpentyl)-[1,1′-biphenyl]-3,4′-dicarboxamide] came in with an IC50 of less than 5 nM.

Regarding `Cc1c(F)cc(C(=O)NC2CC2)cc1-c1ccc(C(=O)NCC(C)(C)C)c(N)c1` [Example 42, 3′-amino-N^3-cyclopropyl-5-fluoro-6-methyl-N^4′-neo pentyl-[1,1′-biphenyl]-3,4′ -dicarboxamide], the IC50 in the series with TNF-α is 5 to 10 nM; at CYP450, 2C9 enzymes, greater than 50000 nM. In the series on TNF-α, `Cc1c(F)cc(C(=O)NC2CC2)cc1-c1ccc(NC(=O)C2CCCCC2)c(F)c1` [Example 47, 4′-(cyclohexanecarboxamido)-N-cyclopropyl-3′,5-difluoro-6-methyl-[1,1′-biphenyl]-3-carboxamide] had an IC50 of 5 to 10 nM.

Consider `Cc1cc(-c2cc(C(=O)NC3CC3)cc(F)c2C)ccc1NC(=O)NC1CCCC1` [Example 50, 4′-(3-cyclopentylureido)-N-cyclopropyl-5-fluoro-3′,6-dimethyl-[1,1′-biphenyl]-3-carboxamide], for which the IC50 in the series with TNF-α is less than 5 nM. Take `Cc1c(F)cc(C(=O)NC2CC2)cc1-c1ccc2nc(NCC(C)C)sc2c1` [Example 51, N-cyclopropyl-3-fluoro-5-(2-(isobutylamino)benzo[d]thiazol-6-yl)-4-methylbenzamide]: the IC50 was less than 5 nM in the series with TNF-α and 5 to 10 nM against p38a. For `CCCCNc1nc2ccc(-c3cc(C(=O)NC4CC4)cc(F)c3C)cc2s1` [Example 52, 3-(2-(butylamino)benzo [d]thiazol-6-yl)-N-cyclopropyl-5-fluoro-4-methylbenzamide], the IC50 in the series on TNF-α and on p38a was 5 to 10 nM each time. In the series on TNF-α, `Cc1c(F)cc(C(=O)NC2CC2)cc1-c1ccc2nc(NC3CCCC3)sc2c1` [Example 54, 3-(2-(cyclopentylamino)benzo[d]thiazol-6-yl)-N-cyclopropyl-5-fluoro-4-methylbenzamide] came in with an IC50 of 5 to 10 nM. Regarding `Cc1c(F)cc(C(=O)NC2CC2)cc1-c1ccc(C(=O)N2CCCCC2)s1` [Example 55, N-cyclopropyl-3-fluoro-4-methyl-5-(5-(piperidin-1-carbonyl)thiophen-2-yl) benzamide], the IC50 with TNF-α and on p38a was 5 to 10 nM in each case.

Turning to `Cc1c(F)cc(C(=O)NC2CC2)cc1-c1ccc(C(=O)N2CCC(C)CC2)s1` [Example 56, N-cyclopropyl-3-fluoro-4-methyl-5-(5-(4-methylpiperidin-1-carbonyl)thiophen-2-yl)benzamide], the IC50 with TNF-α and against p38a was 5 to 10 nM in each case. For the compound `Cc1c(F)cc(C(=O)NC2CC2)cc1-c1ccc(C(=O)NCCC(C)C)nn1` [Example 60, 6-(5-(cyclopropylcarbamoyl)-3-fluoro-2-methylphenyl)-N-isopentylpyridazin-3-carboxamide], the IC50 with TNF-α is 5 to 10 nM; at p38a, less than 5 nM. Consider `Cc1c(F)cc(C(=O)NC2CC2)cc1-c1ccc(C(=O)N(C)C2CCCCC2)nn1` [Example 62], for which the IC50 is 5 to 10 nM in the series on TNF-α and less than 5 nM against p38a. With `C=CCNC(=O)c1cc(F)c(C)c(-c2ccc(C(=O)NC3CCCC3)nn2)c1` [Example 79, 6-(5-(allylcarbamoyl)-3-fluoro-2-methylphenyl)-N-cyclopentylpyridazin-3-carboxamide], the results for the IC50 in the series with TNF-α and on p38a were 5 to 10 nM and less than 5 nM, respectively.

For the compound `C=CCNC(=O)c1cc(F)c(C)c(-c2ccc(C(=O)NC3CCCCC3)nn2)c1` [Example 80, 6-(5-(allylcarbamoyl)-3-fluoro-2-methylphenyl)-N-cyclohexylpyridazin-3-carboxamide], the values for the IC50 with TNF-α and on p38a were 5 to 10 nM and less than 5 nM, respectively. In the case of `C=CCNC(=O)c1cc(F)c(C)c(-c2ccc(C(=O)NCC(C)(C)C)cn2)c1` [Example 81, 6-(5-(allylcarbamoyl)-3-fluoro-2-methylphenyl)-N-neopentylnicotinamide], the IC50 in the series with TNF-α lay within 5 to 10 nM.

A word on the IC50: it is the concentration at which inhibition is half-maximal. A higher IC50 goes with a need for much substance.

Values taken from patent US10550073B2, “Benzamide derivative” (CSPC ZHONGQI PHARMACEUTICAL TECHNOLOGY (SHIJIAZHUANG) CO., …, priority 2015, dated 2020).
